Assay results from the METLIN SMRT retention time set (Domingo-Almenara et al. 2019).

Test: gradient 5% acetonitrile 3 min, to 50% in 2 min, to 85% in 15 min, held 3 min, 100 µL/min
Settings: column: Zorbax Extend-C18 2.1 x 50 mm; eluents: water / acetonitrile, 0.1% formic acid
Procedure, shortened: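 Each retention time is based on an adduct peak selected computationally and verified by manual inspection. Measurements used HPLC–quadrupole time-of-flight mass spectrometry in positive and negative ionization mode on mixtures of ~100 pure standards. Chromatography ran on a Zorbax Extend-C18 column (2.1 × 50 mm, 1.8 μm) at 100 μL/min with water and acetonitrile, each containing 0.1% formic acid, and dead and dwell volumes of 40 μL and 900 μL.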

SMILES	RP-LC retention time [s]
COc1cccc(CN2CCc3nc(N4CCCC4)ncc3C2)c1OC	610
CCN1c2cc(F)ccc2C(=O)NC12CCN(C(=O)c1cc(OC)cc(OC)c1)CC2	813
Cc1cc(NC(=O)C(C)(C)C)nn1Cc1ccccc1	879
O=C(CCCc1ccccc1)NCC1CN(c2ccc3c(c2)OCO3)C(=O)O1 (configuration not stated)	750
O=C(COc1ccccc1)N1CCC(CNS(=O)(=O)c2cccnc2)CC1	658
Cc1nc(CCNC(=O)C(C)(C)C)no1	619
O=C(c1ccccc1)N1CCN(C(=O)N(c2ccccc2)c2ccccc2)CC1	808
CCOC(=O)Cc1ccc(NC(=O)NC2CCN(c3ccc(F)c(C)c3)C2=O)cc1 (configuration not stated)	853
COc1ccccc1CNC(=O)Cn1nc2cc(-c3ccccn3)nc(C)n2c1=O	629
O=C1NC2(CCN(C(=O)Nc3ccc(F)cc3)CC2)N=C1c1ccc(Cl)cc1	890
COCCN(C)C(=O)c1cn(C2CN(S(=O)(=O)c3c(C)noc3C)C2)nn1	703
COc1ccc(S(=O)(=O)NCCc2noc(C)n2)cc1	709
O=S(=O)(Nc1ccc(Cn2cncn2)cc1)c1ccccc1Br	708
CCOc1ccc(NC(=O)NCCC2CCN(S(=O)(=O)c3ccccc3)CC2)cc1	836
CNC(=O)c1noc([C@@H]2CC(F)(F)CN2C(=O)C2CCC2)n1	669
O=C(Cn1cnc2c(sc3nc(-c4ccccc4)ccc32)c1=O)NCc1ccc(Cl)cc1	1070
Cc1c(Cl)cccc1NC(=O)c1ccc(-n2ccnc2)nn1	652
O=C(C1CCCC1)N1CCN(c2cc(-c3ccccc3)[nH]n2)CC1	782
COC(=O)c1cc2c(=O)n(-c3cccc(Cl)c3Cl)ccc2nc1C	915
CC1(c2ccc3ccccc3c2)CCC(=O)O1 (configuration not stated)	970
COc1ccc(OCc2ccc(-c3nc(C#N)c(NCCN(C)C)o3)o2)cc1	676
O=C(NCc1csc(C2CCCN(C(=O)COc3ccccc3)C2)n1)C1CC1 (configuration not stated)	718
O=C(Nc1cccn2cnnc12)c1ccc(Cl)s1	719

SMILES	RP-LC retention time [s]
O=S(=O)(NC1CCCCC1)c1ccc(-c2nnc(C3CCC3)o2)o1	968
CCOC(=O)c1cc(C2CC2)nc2c1c(=O)n(Cc1ccc(Br)cc1F)c(=O)n2C	1270
CN1C(=O)c2cc(C(=O)NC3CCCC3)nn2CC1(C)C(=O)NCc1ccc(F)cc1 (configuration not stated)	719
COC(=O)c1cccc(C(=O)N2CCN(c3cccc(C)c3C)CC2)n1	916
Cc1ccsc1C(=O)N1CCC2(CCCCO2)CC1	780
O=C(c1ccc(Cl)s1)N1CC(c2nc(-c3cccc(C(F)(F)F)c3)no2)C1	1090
Cn1c(=O)n(C)c2cc(CNCCc3ccc(S(N)(=O)=O)cc3)ccc21	538
CCN1CCN(S(=O)(=O)c2ccc(-c3cc(C(F)(F)F)on3)o2)CC1	691
CCSc1nnc(NC(=O)Cn2nc(-n3cccn3)ccc2=O)s1	653
O=C(Nc1ccc(F)cc1F)c1c(O)c2cccnc2n(Cc2ccccc2)c1=O	1310
O=C(CCNS(=O)(=O)c1ccc(Cl)cc1)N1CCN(c2ccccn2)CC1	609
Cc1ccc(CNC(=O)C2(C)CCCN(C(=O)c3cccc(Br)c3)C2)cc1 (configuration not stated)	960
CCCNC(=O)C1CCN(c2ccc(SCC(=O)NCc3ccc(C)cc3)nn2)CC1	656
CCCN1C(=O)c2c(C(=O)NCc3ccccc3Cl)ncn2CC1(C)C(=O)NC1CCCC1 (configuration not stated)	868
CCn1nnc2cc(-c3noc(C(C)NS(=O)(=O)c4ccc(C)cc4)n3)ccc21 (configuration not stated)	846
CCOC(=O)CCC(=O)Nc1cccc2ccc(-n3ccnc3)nc12	586
Cc1cc(S(=O)(=O)N2CCC(n3cnnc3C(C)C)CC2)ccc1F	751
Cc1ccc(S(=O)(=O)N2C(=O)CCC2C(=O)NCc2nc(-c3cccc(C)c3)no2)cc1 (configuration not stated)	910
O=C(CN1C(=O)CCCc2cc(S(=O)(=O)N3CCCCC3)ccc21)NC1CCCCCC1	942
Cc1cc(OCC(=O)N(Cc2ccc(N(C)C)cc2)C2CCS(=O)(=O)C2)ccc1Cl (configuration not stated)	839
CN1C(=O)c2cccn2CC1C(=O)Nc1cccc(Cl)c1 (configuration not stated)	730
CCOC(=O)Cc1nnc(-c2cc(OC)cc(OC)c2)o1	836
CCNc1cc(N2CCCC(CCC(=O)N(C)Cc3cn(C)nc3C)C2)ncn1 (configuration not stated)	598

SMILES	RP-LC retention time [s]
O=C(COc1ccc(F)cc1)N1CCC(c2noc(C3CC3)n2)C1 (configuration not stated)	791
CCOc1ccccc1NC(=O)c1cn(C)c2ncccc12	927
CNC(=O)NC1CCN(c2nc3cccnc3n(Cc3ccccc3)c2=O)CC1	801
Cc1ccc(-c2csc(Nc3ccc(F)cn3)n2)cc1C	1180
CCCS(=O)(=O)N1CCCC(Cn2c(C)nc3cccnc32)C1 (configuration not stated)	572
Cc1ccc(N2C=NS(=O)(=O)c3cccnc32)cc1C	840
O=C(Nc1ccc2c(c1)OCCO2)c1cc2n(n1)CCCN(Cc1ccc(F)cc1)C2=O	863
O=C(Cn1ccc2ccccc21)Nc1nccs1	748
O=C(Cc1csc(NC(=O)c2ccco2)n1)Nc1ccc2c(c1)OCCO2	670
CCOC(=O)c1cc(S(=O)(=O)N2CCCC2C(=O)N2CCN(c3ccccn3)CC2)cn1C (configuration not stated)	600
O=C(c1ccccc1C(F)(F)F)N1CCc2nc(-c3ccc(Cl)cc3)ncc2C1	1060
COC(=O)c1cc(OCC(=O)Nc2cc(Cl)ccc2OC)c2cc(OC)ccc2n1	970
COc1ccc(NC(=O)N2CCC3(C2)C(=O)N(C)c2ccccc23)cc1 (configuration not stated)	745
CCS(=O)(=O)N1CCCCC1c1nc(-c2cccnc2)n[nH]1 (configuration not stated)	615
CCOc1nc2ccccc2nc1N1CCCC(C(=O)Nc2ccccc2OC)C1 (configuration not stated)	1250
Cc1nc(-c2cccc(-c3noc(CNC(=O)Cc4ccc(Cl)cc4)n3)c2)cs1	986
CCn1c(=O)c(N2CCN(C(=O)Nc3ccc(Br)c(C)c3)CC2)nc2cccnc21	1060
COc1ccc(-c2ncc3c(n2)CCN(C(=O)Nc2ccc(C)cc2C)C3)cc1	644
CCN(CC)C(=O)C1CCCN(S(=O)(=O)c2ccc(OC)c(C)c2)C1 (configuration not stated)	881
COc1cccc(CNC(=O)[C@@H]2[C@H](c3cc(OC)c(OC)c(OC)c3)c3cc4c(cc3[C@H](O)[C@H]2CO)OCO4)c1OC	702
CCC(CC)C(=O)Nc1ccc(-c2nc(-c3ccc(Cl)cc3)no2)cc1	639
O=C(NCc1ccc2c(c1)N(C(=O)c1ccccc1)CC2)NC1CCCC1	818
O=C(NCCc1csc(-c2cccs2)n1)C1CCN(S(=O)(=O)c2cccs2)CC1	852

SMILES	RP-LC retention time [s]
CCOc1ccccc1-c1noc(Cn2c(=O)n(CC3CCCO3)c(=O)c3ccccc32)n1 (configuration not stated)	966
CCOc1coc(C(=O)NCCc2ccc(Cl)cc2)cc1=O	706
Cn1cc(-c2ccncc2)cc1C(=O)N1CCN(c2ccccc2)CC1	624
CCC(=O)Nc1ccc(C2(C(=O)N3CCN(c4ccccc4)CC3)CCC2)cc1	861
Cc1nc2scc(C)n2c(=O)c1S(=O)(=O)N1CCN(c2ccccn2)CC1	584
COC(=O)c1cc(S(=O)(=O)N2CCCC2C(=O)Nc2cccc(F)c2)cn1C (configuration not stated)	883
COc1ccc(CNC(=O)Cn2c(C(F)(F)F)nc3cc4c(cc32)OCCO4)cc1	813
CCc1nccn1Cc1noc(-c2ccc(F)cc2)n1	615
CCn1cnc2ccc(-c3noc(Cc4ccccc4Cl)n3)cc21	774
COc1ccc(Cn2cc(C(=O)O)nn2)cc1F	641
CCCc1noc(-c2cccnc2N2CCCN(Cc3ccccc3)CC2)n1	690
O=C(NCCn1nc(-n2cccn2)ccc1=O)c1ccc2nsnc2c1	621
CC(=O)N1CCc2cc(C(=O)NC(C)C)ccc21	644
CNC(=O)N1Cc2ccccc2OC2(CCN(C(C)C)CC2)C1	592
COC(=O)c1c(NCc2ccc3c(c2)OCO3)c2cccc(Cl)c2[nH]c1=O	788
CC(C)NC(=O)N1CCC(OCc2ccccc2)C1 (configuration not stated)	742
O=C(CC(F)(F)F)NCCc1noc(C2CC2)n1	671
O=C(Nc1ccccc1)c1cc(C2CC2)on1	912
CCc1ccc(CNC(=O)CN2CCc3ccccc3C2C(=O)N2CCCCC2)cc1 (configuration not stated)	965
COc1cccc(N2CCN(C(=O)c3ccc4c(c3)NC(=O)C3CCCCN43)CC2)c1 (configuration not stated)	592
COC(=O)c1c(NCc2ccccc2F)c2cccc(Cl)c2[nH]c1=O	808
COc1ccc(C(=O)NC(CC(C)C)C(=O)Nc2nc3ccccc3[nH]2)cc1OC (configuration not stated)	705
CS(=O)(=O)N1CCCN(C(=O)c2ccc(F)cc2)CC1	670
